Bridge positions count the residues as written; N and C are the ends. Square brackets hold non-standard residues; d marks the D form. Peptide text beside a SMILES is read from it. Bip = N[C@@H](Cc1ccc(-c2ccccc2)cc1)C(=O)O; NMeF = CN[C@@H](Cc1ccccc1)C(=O)O; NMeA = CN[C@@H](C)C(=O)O; Sar = CNCC(=O)O

In assay [1] the target is T1, EcMsbA-chim5 (MsbA-chimera5) (Escherichia coli, UniProt P60752, D53T/D54Y/D60K/DEL268-292/DEL57-57/F265A/G55I/I169L/INS266[…]/INS66P/K49D/K58D/L171A/L263V/L51V/L52I/M159V/M67L/P68V/S164D/S62H/T59E/V63D/Y163E).
T1 construct: FLAG (N); made in house; host or cells: E. coli Rosetta 2 (DE3), pET-52b vector
Nature of the assay: biochemical. It counts as biochemical. The note with it: ATPase; FIGS. 11D-E. As for the experimental part:
(§1) The ATPase activity of MsbA was measured using a Transcreener ADP2 FP Assay (BellBrook Labs). […] The final condition for the reaction was MsbA enzyme, 50 μM ATP in 50 mM Tris pH 7.5, 10 mM MgCl2, 1% glycerol, 0.1% bovine gamma globulin, 1 mM dithiothreitol (DTT), 0.007% Brij-35 and 0.5% dimethylsulfoxide (DMSO). The following concentrations were used for each MsbA variant: 5 nM of EcMsbA, EnMsbA, KpMsbA and 80 nM PaMsbA reconstituted in amphipol, 15 nM EcMsbA and EcMsbA-chim5 in LMNG detergent, 22 nM EcMsbA and 27 nM EcMsbA-12G7 complex in aDDM detergent. The enzyme reaction was incubated for 1 hour at room temperature, then quenched by adding the Transcreener Detection Buffer. The IC50 was determined by fitting the inhibition dose-response curve with a nonlinear four-parameter inhibition model (GraphPad Prism).

Another assay deals with T2, E. coli MsbA (EcMsbA) (Escherichia coli, UniProt P60752).
T2 construct: FLAG (N); made in house; host or cells: E. coli (strain for the WT protein not restated)
Nature of the assay: MsbA ATPase assay (Transcreener ADP2 FP). Type of assay: biochemical. As for the experimental part:
as §1

Assay [2] has as its target T3, EcMsbA-chim5 (MsbA-chimera5) (Escherichia coli, UniProt P60752, D53T/D54Y/D60K/DEL268-292/DEL57-57/F265A/G55I/I169L/INS266IAYAGNRVIHEDMRSGALIAFIAAL/INS66P/K49D/K58D/L171A/L263V/L51V/L52I/M159V/M67L/P68V/S164D/S62H/T59E/V63D/Y163E).
T3 construct: FLAG (N); made in house; host or cells: E. coli Rosetta 2 (DE3), pET-52b vector
The assay can be described thus: biochemical. Type of assay: biochemical. As for the experimental part: as §1

For assay [3], the target named is T4, Pseudomonas aeruginosa MsbA (PaMsbA) (Pseudomonas aeruginosa, UniProt Q9HUG8).
T4 construct: FLAG; made in house; host or cells: not restated ('similarly expressed')
T4 sequence (Q9HUG8 1-603): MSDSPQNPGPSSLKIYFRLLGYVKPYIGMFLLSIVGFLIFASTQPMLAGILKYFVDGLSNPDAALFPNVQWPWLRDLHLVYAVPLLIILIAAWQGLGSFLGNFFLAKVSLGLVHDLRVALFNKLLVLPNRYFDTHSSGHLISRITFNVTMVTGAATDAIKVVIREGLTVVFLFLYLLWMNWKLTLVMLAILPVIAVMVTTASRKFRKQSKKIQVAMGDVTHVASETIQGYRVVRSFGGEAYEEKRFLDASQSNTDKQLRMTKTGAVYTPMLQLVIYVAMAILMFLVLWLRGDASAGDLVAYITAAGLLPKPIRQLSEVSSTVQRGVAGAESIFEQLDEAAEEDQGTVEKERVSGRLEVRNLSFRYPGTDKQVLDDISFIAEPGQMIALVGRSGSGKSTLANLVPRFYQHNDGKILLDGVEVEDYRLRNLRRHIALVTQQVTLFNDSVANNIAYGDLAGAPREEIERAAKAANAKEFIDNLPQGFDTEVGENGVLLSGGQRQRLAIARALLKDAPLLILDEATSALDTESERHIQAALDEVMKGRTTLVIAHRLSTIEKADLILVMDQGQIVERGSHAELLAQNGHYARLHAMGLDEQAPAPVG
The assay can be described thus: MsbA ATPase assay, amphipol-reconstituted homologue. Type of assay: biochemical. The protocol: as §1

Assay [4] concerns WT E. coli cells with an intact outer membrane (CFT073, UPEC WT). The assay can be described thus: Cellular IC50 determination (BacTiter-Glo, 6 hours). It counts as cell-based, Escherichia coli. As for the experimental part:
The cellular IC50's of various bacterial strains (Table 2) were determined.
200 nL aliquots of eight 2-fold dilutions of each compound were dispensed in duplicate into 384-well plates using an Echo Liquid Handler (Labcyte). Strains were grown in cation-adjusted Mueller Hinton Broth with 0.002% Tween overnight for 16 hours, washed with PBS, resuspended at OD600=1 in cation-adjusted Mueller Hinton Broth with 0.002% Tween and 10% glycerol, and frozen in […] aliquots. For each experiment, aliquots were thawed on ice and diluted 1:1000 into cation-adjusted Mueller Hinton Broth with 0.002% Tween. 10 μL cells/well were added to 384-well plates containing compound. Plates were incubated for 6 hours at 37° C., then 10 μL BacTiter-Glo reagent (Promega) was added to each well and luminescence was measured. IC50's were calculated using Genedata Screener software.

In assay [5] the test system is imp E. coli (lptD(imp4213)), E. coli MsbA. The assay can be described thus: Broth MIC assay. Type of assay: cell-based, Escherichia coli. The note with it: Table 5 prints no unit; μM. The protocol:
Broth MICs were determined in cation-adjusted Mueller-Hinton broth with 0.002% Tween-80, as previously described (Ho et al., 2018).

Assay [6] has as its target T5, E. coli MsbA-chimera5 (chimera of Escherichia coli MsbA and Magnetospira strain-QH-2 MsbA), P60752.
T5 chain: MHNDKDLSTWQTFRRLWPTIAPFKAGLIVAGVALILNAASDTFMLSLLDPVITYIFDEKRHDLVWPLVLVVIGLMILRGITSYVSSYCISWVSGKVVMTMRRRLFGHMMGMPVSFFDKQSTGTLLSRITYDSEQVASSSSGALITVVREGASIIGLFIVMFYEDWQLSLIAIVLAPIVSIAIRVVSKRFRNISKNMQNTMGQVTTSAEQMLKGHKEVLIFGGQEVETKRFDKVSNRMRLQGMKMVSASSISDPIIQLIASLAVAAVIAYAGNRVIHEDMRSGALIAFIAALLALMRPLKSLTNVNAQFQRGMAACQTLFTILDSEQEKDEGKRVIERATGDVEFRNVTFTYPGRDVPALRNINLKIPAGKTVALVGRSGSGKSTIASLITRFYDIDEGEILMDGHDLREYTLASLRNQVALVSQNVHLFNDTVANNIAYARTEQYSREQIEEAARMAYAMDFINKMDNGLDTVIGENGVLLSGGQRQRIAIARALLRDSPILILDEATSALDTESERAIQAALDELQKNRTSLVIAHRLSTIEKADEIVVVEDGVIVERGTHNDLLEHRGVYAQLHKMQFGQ
The assay can be described thus: cell-based or functional assay.

In assay [7] the target is Enterobacter cloacae MsbA (Enterobacter cloacae). Nature of the assay: cell-based or functional assay.
Assay [8] deals with T6, Escherichia coli MsbA (wild-type) (Escherichia coli), P60752.
T6 chain: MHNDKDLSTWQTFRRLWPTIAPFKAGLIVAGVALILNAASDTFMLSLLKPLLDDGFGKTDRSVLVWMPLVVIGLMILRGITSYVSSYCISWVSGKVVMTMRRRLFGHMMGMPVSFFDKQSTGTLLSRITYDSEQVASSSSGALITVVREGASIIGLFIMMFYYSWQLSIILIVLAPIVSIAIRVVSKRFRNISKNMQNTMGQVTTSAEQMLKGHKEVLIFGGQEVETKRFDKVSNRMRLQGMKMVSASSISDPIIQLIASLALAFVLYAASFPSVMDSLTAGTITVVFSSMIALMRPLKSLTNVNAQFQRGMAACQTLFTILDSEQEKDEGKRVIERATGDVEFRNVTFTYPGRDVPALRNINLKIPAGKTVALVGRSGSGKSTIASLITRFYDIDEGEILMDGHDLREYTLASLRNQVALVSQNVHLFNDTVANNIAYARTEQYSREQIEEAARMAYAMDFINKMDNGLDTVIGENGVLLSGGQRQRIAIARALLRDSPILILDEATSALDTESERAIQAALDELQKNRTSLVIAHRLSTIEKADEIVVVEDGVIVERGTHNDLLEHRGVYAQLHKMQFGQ
Nature of the assay: cell-based or functional assay.

The target in assay [9] is Klebsiella pneumoniae MsbA (Klebsiella pneumoniae). The assay can be described thus: cell-based or functional assay.
For assay [10], the target named is T7, Pseudomonas aeruginosa MsbA (Pseudomonas aeruginosa), Q9HUG8.
T7 chain: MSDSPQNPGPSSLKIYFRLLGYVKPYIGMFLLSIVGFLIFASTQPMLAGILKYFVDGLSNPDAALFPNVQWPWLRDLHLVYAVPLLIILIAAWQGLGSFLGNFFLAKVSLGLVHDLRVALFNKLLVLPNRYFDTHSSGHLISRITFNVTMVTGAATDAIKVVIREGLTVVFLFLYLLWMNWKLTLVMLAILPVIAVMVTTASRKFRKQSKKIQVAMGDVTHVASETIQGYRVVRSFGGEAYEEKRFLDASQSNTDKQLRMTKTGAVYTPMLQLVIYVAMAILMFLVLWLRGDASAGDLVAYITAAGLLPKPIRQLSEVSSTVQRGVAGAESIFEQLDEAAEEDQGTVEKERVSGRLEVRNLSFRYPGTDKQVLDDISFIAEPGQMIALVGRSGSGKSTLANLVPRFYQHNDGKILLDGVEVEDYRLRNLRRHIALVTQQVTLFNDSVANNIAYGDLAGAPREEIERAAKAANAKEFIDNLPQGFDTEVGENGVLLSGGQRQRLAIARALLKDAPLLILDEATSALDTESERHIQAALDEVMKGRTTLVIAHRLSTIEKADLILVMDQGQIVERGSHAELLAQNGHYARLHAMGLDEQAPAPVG
The assay can be described thus: cell-based or functional assay.

Where [11] appears, read: IC50 for inhibition of ATPase activity of MsbA, experiment of FIG. 3F / b233.

Regarding `CC1CCN(CC(=O)Nc2ccc(C#N)nc2C(=O)c2ncccc2F)CC1` [Compound G758, N-(6-cyano-2-(3-fluoropicolinoyl)pyridin-3-yl)-2-(4-methylpiperidin-1-yl)acetamide, reference compound], the “sensitivity of MsbA-chim5 to previously identified small-molecule inhibitors” value in assay [1] is recorded as “displayed sensitivity”.
With `CC(C)C[C@@H]1NC(=O)[C@H](Cc2c[nH]c3ccccc23)NC(=O)[C@H](Cc2c[nH]c3ccccc23)NC(=O)[C@H](Cc2ccccc2)NC(=O)CSC[C@@H](C(N)=O)NC(=O)[C@H](C(C)C)NC(=O)[C@H](Cc2ccccc2)N(C)C(=O)[C@H](Cc2c[nH]c3ccccc23)NC(=O)[C@H](Cc2c[nH]c3ccccc23)NC(=O)[C@H](CC(=O)O)NC(=O)CN(C)C(=O)[C@H](CC(=O)O)NC(=O)[C@H](CO)NC(=O)[C@H](Cc2c[nH]c3ccccc23)NC1=O` [Compound G1119] ({CH2CO}-FWWLWSD[Sar]DWW[NMeF]VC-NH2; thioether N-14), at E. coli MsbA (EcMsbA) (setting [11]), the IC50 (commonly the midpoint of a concentration-inhibition curve) was 5 nM.
On the same count and under the same terms, with `CC(C)C[C@@H]1NC(=O)CNC(=O)[C@H](Cc2c[nH]c3ccccc23)NC(=O)[C@H](C)N(C)C(=O)[C@H](Cc2c[nH]c3ccccc23)NC(=O)[C@H](CC(C)C)NC(=O)[C@H](Cc2ccc(O)cc2)NC(=O)[C@H](CCCNC(=N)N)NC(=O)[C@H](Cc2ccccc2)NC(=O)CSC[C@@H](C(N)=O)NC(=O)[C@H](CC(N)=O)NC(=O)[C@H](CC(=O)O)NC(=O)[C@H](Cc2c[nH]c3ccccc23)NC(=O)[C@H](C(C)C)NC1=O` [Compound G1122] ({CH2CO}-FRYLW[NMeA]WGLVWDNC-NH2; thioether N-14) the figure was 2 nM.
For `CC(C)[C@@H]1NC(=O)[C@H](CCCNC(=N)N)NC(=O)[C@H](Cc2ccccc2)N(C)C(=O)[C@H](Cc2ccc(-c3ccccc3)cc2)NC(=O)[C@H](Cc2ccc(O)cc2)NC(=O)[C@H](C(C)C)NC(=O)[C@H](Cc2ccccc2)NC(=O)CSC[C@@H](C(N)=O)NC1=O` [Compound G1365, ClAc-FVYBphMeFRVCNH2] ({CH2CO}-FVY[Bip][NMeF]RVC-NH2; thioether N-8), the 50% inhibitory concentration (IC50) against E. coli MsbA (EcMsbA) (ATPase inhibitory activity on WT EcMsbA, IC50, purified WT EcMsbA, FIG. 3D) is 1300 nM; at E. coli MsbA (EcMsbA) (biochemical IC50, FIGS. 3G-L, 8-10 mer macrocycle series experiment), 300 nM; in assay [2] it was over 5000 nM; in [3], 7600 nM; in assay [4] (over the course of 6 hours, read-out: IC50, inhibition of growth of WT E. coli cells with an intact outer membrane) it was about 20000 nM. The 50% effective concentration (EC50) (commonly the midpoint of the concentration-response curve) in [4] (dose response on imp MsbAWT, imp MsbA High and UPEC WT, b248: EC50 for wild-type E. coli cells, read-out: EC50, FIGS. 3G-L) came out at 20000 nM. In addition, in assay [5], the “imp Strain MICs: imp, E.coli MsbA” value is 12.5 µM.
Regarding FWWLWDDVSWWFVC (modifications not checked) [G1118], in [6], the IC50, ATPase activity of purified MsbA-chim5 was over 5000 nM and the fold lower potency than on EcMsbA (ATPase) was over 30 fold. The IC50, ATPase activity in [7] turned out to be 240 nM. Besides, in assay [8], the IC50, ATPase activity of purified EcMsbA was 110 nM; the IC50 for inhibition of ATPase activity of MsbA came out at 5 nM; the minimum inhibitory concentration (MIC), E. coli cells with the lptD(imp4213) allele was found to be 210 µg/mL. Further, in [9], the IC50, ATPase activity worked out at 120 nM. Further, the IC50, ATPase activity in assay [10] worked out at 3100 nM.
